{"source": "ChEMBL document CHEMBL1121395", "about": "“[5-(N4,N4-Dimethylasparagine),8-lysine]vasopressin: the first 5-position neurohypophyseal hormone analogue to retain to retain significant antidiuretic potency” (1980)", "key": {"Rattus norvegicus [1]": {"organism": "Rattus norvegicus", "assay": "Pressor potency of compound was determined in rat", "assay_type": "functional"}, "Rattus norvegicus [2]": {"organism": "Rattus norvegicus", "assay": "In vitro uterotonic potency of compound was determined in rat", "assay_type": "functional"}, "Rattus norvegicus [3]": {"system": "Rattus norvegicus", "assay": "In vivo antidiuretic potency of compound was determined in rat"}, "Gallus gallus": {"organism": "Gallus gallus", "assay": "Avian vasodepressor potency of compound was determined"}}, "data": [{"smiles": "CN(C)C(=O)C[C@@H]1NC(=O)[C@H](CCC(N)=O)NC(=O)[C@H](Cc2ccccc2)NC(=O)[C@H](Cc2ccc(O)cc2)NC(=O)[C@@H](N)CSSC[C@@H](C(=O)N2CCC[C@H]2C(=O)N[C@@H](CCCCN)C(=O)NCC(N)=O)NC1=O", "values": [{"measurement": "Activity", "setting": "Rattus norvegicus [1]", "value": 2.55, "unit": "mg"}, {"measurement": "Activity", "setting": "Rattus norvegicus [2]", "value": "< 0.05", "unit": "mg"}, {"measurement": "Activity", "setting": "Rattus norvegicus [3]", "value": 5.5, "unit": "mg"}, {"measurement": "Activity", "setting": "Gallus gallus", "value": 0.39, "unit": "mg"}]}, {"smiles": "NCCCC[C@H](NC(=O)[C@@H]1CCCN1C(=O)[C@@H]1CSSC[C@H](N)C(=O)N[C@@H](Cc2ccc(O)cc2)C(=O)N[C@@H](Cc2ccccc2)C(=O)N[C@@H](CCC(N)=O)C(=O)N[C@@H](CC(N)=O)C(=O)N1)C(=O)NCC(N)=O", "values": [{"measurement": "Activity", "setting": "Rattus norvegicus [3]", "value": 203, "unit": "mg"}]}]}
